From patent US20140155389A1, “BICYCLIC INHIBITORS OF ALK” (ABBVIE INC., priority 2011, published 2014)

target: T1, ALK (Homo sapiens, UniProt Q9UM73); experiment: ALK kinase assay (HTRF); type: biochemical; settings: apparent Ki from IC50 by Cheng-Prusoff; ALK (Millipore) 3 nM or 4 nM, 50 μM ATP, 1 h at room temperature; read-out: HTRF_ALK Human - Ki
T1 construct: purchased Millipore
T1 sequence (Q9UM73 19-1620): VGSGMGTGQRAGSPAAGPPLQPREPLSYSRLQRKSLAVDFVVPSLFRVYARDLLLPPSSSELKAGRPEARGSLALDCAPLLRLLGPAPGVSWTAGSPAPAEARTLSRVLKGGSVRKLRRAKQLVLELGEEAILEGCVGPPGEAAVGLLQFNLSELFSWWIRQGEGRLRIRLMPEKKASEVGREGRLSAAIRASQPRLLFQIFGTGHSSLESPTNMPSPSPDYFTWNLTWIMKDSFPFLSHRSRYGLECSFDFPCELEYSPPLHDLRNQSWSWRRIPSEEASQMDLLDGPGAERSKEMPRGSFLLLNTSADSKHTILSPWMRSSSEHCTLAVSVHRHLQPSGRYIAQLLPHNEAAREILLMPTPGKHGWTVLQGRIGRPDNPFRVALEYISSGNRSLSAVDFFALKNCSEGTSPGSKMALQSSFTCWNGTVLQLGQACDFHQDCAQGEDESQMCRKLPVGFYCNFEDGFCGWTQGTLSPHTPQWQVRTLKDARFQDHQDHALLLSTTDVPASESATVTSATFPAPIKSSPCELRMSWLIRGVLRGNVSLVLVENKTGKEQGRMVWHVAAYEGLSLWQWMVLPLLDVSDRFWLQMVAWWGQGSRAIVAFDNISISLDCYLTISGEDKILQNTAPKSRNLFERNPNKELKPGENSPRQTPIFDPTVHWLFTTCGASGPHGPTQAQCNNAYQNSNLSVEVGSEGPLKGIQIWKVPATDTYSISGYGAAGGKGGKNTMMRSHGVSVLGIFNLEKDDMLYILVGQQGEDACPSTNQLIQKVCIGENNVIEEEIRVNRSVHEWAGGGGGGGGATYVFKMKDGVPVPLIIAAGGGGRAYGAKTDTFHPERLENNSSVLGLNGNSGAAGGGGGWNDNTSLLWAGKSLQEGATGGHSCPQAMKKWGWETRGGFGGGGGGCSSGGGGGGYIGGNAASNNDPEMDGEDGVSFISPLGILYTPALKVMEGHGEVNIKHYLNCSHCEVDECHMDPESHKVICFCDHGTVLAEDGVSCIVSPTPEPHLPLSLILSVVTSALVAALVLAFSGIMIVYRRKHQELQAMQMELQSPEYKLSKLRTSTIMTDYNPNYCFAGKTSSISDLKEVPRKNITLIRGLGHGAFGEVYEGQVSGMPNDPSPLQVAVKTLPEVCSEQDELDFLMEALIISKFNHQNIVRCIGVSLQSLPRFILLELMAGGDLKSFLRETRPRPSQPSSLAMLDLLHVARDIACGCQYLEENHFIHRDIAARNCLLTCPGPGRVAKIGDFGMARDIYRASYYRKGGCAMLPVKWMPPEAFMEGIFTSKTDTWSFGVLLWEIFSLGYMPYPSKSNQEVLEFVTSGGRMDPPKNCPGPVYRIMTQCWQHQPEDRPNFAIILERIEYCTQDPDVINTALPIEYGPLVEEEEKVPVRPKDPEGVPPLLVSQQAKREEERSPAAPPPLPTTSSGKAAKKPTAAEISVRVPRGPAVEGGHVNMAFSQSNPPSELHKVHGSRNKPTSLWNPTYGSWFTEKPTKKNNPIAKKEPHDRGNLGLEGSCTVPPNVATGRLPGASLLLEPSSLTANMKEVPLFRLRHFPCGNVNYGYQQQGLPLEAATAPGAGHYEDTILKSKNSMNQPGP

Compound | Ki [nM]
COc1cc2c(cc1Nc1nc(Cc3c(Cl)cccc3Cl)cc3cn[nH]c(=O)c13)CCNC2 [Example 88, 7-(2,6-dichlorobenzyl)-5-[(7-methoxy-1,2,3,4-tetrahydroisoquinolin-6-yl)amino]pyrido[3,4-d]pyridazin-4(3H)-one] | 4
COc1cc(N2CCNCC2)ccc1Nc1cc(Oc2ccccc2Cl)nc2cn[nH]c(=O)c12 [Example 89, 2-(2-chlorophenoxy)-4-{[2-methoxy-4-(piperazin-1-yl)phenyl]amino}pyrido[2,3-d]pyridazin-5(6H)-one] | 15
Oc1nncc2cc(N3CCC(F)CC3)nc(Nc3ccc(CN4CCCC4)cc3Cl)c12 [Example 90, 5-{[2-chloro-4-(pyrrolidin-1-ylmethyl)phenyl]amino}-7-(4-fluoropiperidin-1-yl)pyrido[3,4-d]pyridazin-4-ol] | 7
COc1cc2c(cc1Nc1cc(Cc3ccccc3Cl)nc3cnnc(O)c13)CNCC2 [Example 91, 2-(2-chlorobenzyl)-4-[(6-methoxy-1,2,3,4-tetrahydroisoquinolin-7-yl)amino]pyrido[2,3-d]pyridazin-5-ol] | 55
COc1cc(CN2CCNCC2)ccc1Nc1cc(Cc2ccccc2Cl)nc2cn[nH]c(=O)c12 [Example 92, 2-(2-chlorobenzyl)-4-{[2-methoxy-4-(piperazin-1-ylmethyl)phenyl]amino}pyrido[2,3-d]pyridazin-5(6H)-one] | 15
Oc1nncc2cc(NCC3CC3)nc(Nc3ccc(CN4CCCC4)cc3Cl)c12 [Example 93, 5-{[2-chloro-4-(pyrrolidin-1-ylmethyl)phenyl]amino}-7-[(cyclopropylmethyl)amino]pyrido[3,4-d]pyridazin-4-ol] | 4
COc1cc(CN2CCOCC2)ccc1Nc1cc(Cc2ccccc2Cl)nc2cnnc(O)c12 [Example 94, 2-(2-chlorobenzyl)-4-{[2-methoxy-4-(morpholin-4-ylmethyl)phenyl]amino}pyrido[2,3-d]pyridazin-5-ol] | 51
CCOc1cc(CN2CCCC2)ccc1Nc1nc(Oc2ccccc2Cl)cc2cn[nH]c(=O)c12 [Example 95, 7-(2-chlorophenoxy)-5-{[2-ethoxy-4-(pyrrolidin-1-ylmethyl)phenyl]amino}pyrido[3,4-d]pyridazin-4(3H)-one] | 138
O=c1[nH]ncc2cc(N3CCC(O)CC3)nc(Nc3ccc(CN4CCCC4)cc3Cl)c12 [Example 96, 5-{[2-chloro-4-(pyrrolidin-1-ylmethyl)phenyl]amino}-7-(4-hydroxypiperidin-1-yl)pyrido[3,4-d]pyridazin-4(3H)-one] | 9
O=c1[nH]ncc2cc(N3CC(O)C3)nc(Nc3ccc(CN4CCCC4)cc3Cl)c12 [Example 97, 5-{[2-chloro-4-(pyrrolidin-1-ylmethyl)phenyl]amino}-7-(3-hydroxyazetidin-1-yl)pyrido[3,4-d]pyridazin-4(3H)-one] | 74
COc1cc(C2CCNCC2)ccc1Nc1nc(Oc2ccccc2Cl)cc2cnnc(O)c12 [Example 98, 7-(2-chlorophenoxy)-5-{[2-methoxy-4-(piperidin-4-yl)phenyl]amino}pyrido[3,4-d]pyridazin-4-ol] | 9
COc1cc(C2CCNCC2)ccc1Nc1nc(NCC2CC2)cc2cnnc(O)c12 [Example 99, 7-[(cyclopropylmethyl)amino]-5-{[2-methoxy-4-(piperidin-4-yl)phenyl]amino}pyrido[3,4-d]pyridazin-4-ol] | 6
COc1cc(C2CCNCC2)ccc1Nc1cc(Cc2ccccc2Cl)nc2cn[nH]c(=O)c12 [Example 100, 2-(2-chlorobenzyl)-4-{[2-methoxy-4-(piperidin-4-yl)phenyl]amino}pyrido[2,3-d]pyridazin-5(6H)-one] | 4
COc1cc(C2CCNCC2)ccc1Nc1cc(Cc2c(Cl)cccc2Cl)nc2cn[nH]c(=O)c12 [Example 101, 2-(2,6-dichlorobenzyl)-4-{[2-methoxy-4-(piperidin-4-yl)phenyl]amino}pyrido[2,3-d]pyridazin-5(6H)-one] | 1
COc1cc(C2CCNCC2)ccc1Nc1cc(CCN2CCOCC2)nc2cn[nH]c(=O)c12 [Example 102, 4-{[2-methoxy-4-(piperidin-4-yl)phenyl]amino}-2-[2-(morpholin-4-yl)ethyl]pyrido[2,3-d]pyridazin-5(6H)-one] | 331
O=c1[nH]ncc2cc(Oc3ccccc3Cl)nc(Nc3ccc(N4CCNCC4)cn3)c12 [Example 103, 7-(2-chlorophenoxy)-5-{[5-(piperazin-1-yl)pyridin-2-yl]amino}pyrido[3,4-d]pyridazin-4(3H)-one] | 20

Next, values leading:

Ki [nM] | Compound
75 | COc1cc(C2CCNCC2)ccc1Nc1cc(CCC2CC2)nc2cn[nH]c(=O)c12 [Example 104, 2-(2-cyclopropylethyl)-4-{[2-methoxy-4-(piperidin-4-yl)phenyl]amino}pyrido[2,3-d]pyridazin-5(6H)-one]
> 470 | COc1cc(C(=O)N2CCCC2)ccc1Nc1nc(Oc2ccccc2Cl)cc2cnnc(O)c12 [Example 105, (4-{[7-(2-chlorophenoxy)-4-hydroxypyrido[3,4-d]pyridazin-5-yl]amino}-3-methoxyphenyl)(pyrrolidin-1-yl)methanone]
21 | CCOc1cc(C2CCNCC2)ccc1Nc1nc(Oc2ccccc2Cl)cc2cn[nH]c(=O)c12 [Example 106, 7-(2-chlorophenoxy)-5-{[2-ethoxy-4-(piperidin-4-yl)phenyl]amino}pyrido[3,4-d]pyridazin-4(3H)-one]
16 | COc1cc(C2CCNCC2)ccc1Nc1cc(Cc2ccccc2F)nc2cn[nH]c(=O)c12 [Example 107, 2-(2-fluorobenzyl)-4-{[2-methoxy-4-(piperidin-4-yl)phenyl]amino}pyrido[2,3-d]pyridazin-5(6H)-one]
8 | COc1cc(C2CCNCC2)ccc1Nc1cc(Cc2cccc(Cl)c2Cl)nc2cn[nH]c(=O)c12 [Example 108, 2-(2,3-dichlorobenzyl)-4-{[2-methoxy-4-(piperidin-4-yl)phenyl]amino}pyrido[2,3-d]pyridazin-5(6H)-one]
6 | COc1cc(C2CCNCC2)ccc1Nc1cc(Cc2c(F)cccc2F)nc2cn[nH]c(=O)c12 [Example 109, 2-(2,6-difluorobenzyl)-4-{[2-methoxy-4-(piperidin-4-yl)phenyl]amino}pyrido[2,3-d]pyridazin-5(6H)-one]
16 | COc1cc(C2CCNCC2)ccc1Nc1cc(Cc2cc(F)ccc2F)nc2cn[nH]c(=O)c12 [Example 110, 2-(2,5-difluorobenzyl)-4-{[2-methoxy-4-(piperidin-4-yl)phenyl]amino}pyrido[2,3-d]pyridazin-5(6H)-one]
15 | COc1cc(C2CCNCC2)ccc1Nc1cc(Cc2cccc(F)c2F)nc2cn[nH]c(=O)c12 [Example 111, 2-(2,3-difluorobenzyl)-4-{[2-methoxy-4-(piperidin-4-yl)phenyl]amino}pyrido[2,3-d]pyridazin-5(6H)-one]
4 | COc1cc(C2CCNCC2)ccc1Nc1cc(Cc2c(F)cccc2Cl)nc2cn[nH]c(=O)c12 [Example 112, 2-(2-chloro-6-fluorobenzyl)-4-{[2-methoxy-4-(piperidin-4-yl)phenyl]amino}pyrido[2,3-d]pyridazin-5(6H)-one]
58 | COc1ccccc1Nc1nc(Nc2ccc(N3CCNCC3)cc2)cc2cnnc(O)c12 [Example 113, 5-[(2-methoxyphenyl)amino]-7-{[4-(piperazin-1-yl)phenyl]amino}pyrido[3,4-d]pyridazin-4-ol]
8 | CCOc1cc(N2CCNCC2)ccc1Nc1nc(Oc2ccccc2Cl)cc2cnnc(O)c12 [Example 114, 7-(2-chlorophenoxy)-5-{[2-ethoxy-4-(piperazin-1-yl)phenyl]amino}pyrido[3,4-d]pyridazin-4-ol]
6 | COc1cc(N2CCNCC2)ccc1Nc1nc(Oc2ccccc2C#N)cc2cn[nH]c(=O)c12 [Example 115, 2-[(5-{[2-methoxy-4-(piperazin-1-yl)phenyl]amino}-4-oxo-3,4-dihydropyrido[3,4-d]pyridazin-7-yl)oxy]benzonitrile]
33 | COc1cc(CN2CCN(C)CC2)ccc1Nc1cc(Cc2ccccc2Cl)nc2cn[nH]c(=O)c12 [Example 116, 2-(2-chlorobenzyl)-4-({2-methoxy-4-[(4-methylpiperazin-1-yl)methyl]phenyl}amino)pyrido[2,3-d]pyridazin-5(6H)-one]
15 | O=c1[nH]ncc2cc(Oc3ccccc3Cl)nc(Nc3ccc(N4CCNCC4)cc3OC(F)F)c12 [Example 117, 7-(2-chlorophenoxy)-5-{[2-(difluoromethoxy)-4-(piperazin-1-yl)phenyl]amino}pyrido[3,4-d]pyridazin-4(3H)-one]
15 | O=c1[nH]ncc2cc(Oc3ccccc3Cl)nc(Nc3ccc(C4CCNCC4)cn3)c12 [Example 118, 7-(2-chlorophenoxy)-5-{[5-(piperidin-4-yl)pyridin-2-yl]amino}pyrido[3,4-d]pyridazin-4(3H)-one]
15 | COc1cc(N2CCNCC2)ccc1Nc1nc(Oc2ccccc2Cl)cc2c(C)nnc(O)c12 [Example 119, 7-(2-chlorophenoxy)-5-{[2-methoxy-4-(piperazin-1-yl)phenyl]amino}-1-methylpyrido[3,4-d]pyridazin-4-ol]
2 | N#Cc1cc(N2CCNCC2)ccc1Nc1nc(Oc2ccccc2Cl)cc2cnnc(O)c12 [Example 120, 2-{[7-(2-chlorophenoxy)-4-hydroxypyrido[3,4-d]pyridazin-5-yl]amino}-5-(piperazin-1-yl)benzonitrile]
